The subject of the assay is Marchantia polymorpha wild-type plants. Description: Chlorsulfuron resistance determination (survival two weeks after exposure to a lethal dose). It counts as in vivo. The settings on record: 0.1 ppm dose (lethal dose); survival assessed two weeks following exposure. The protocol: Marchantia polymorpha spores were irradiated with ultraviolet B irradiation and seven independent mutant lines resistant to the herbicide chlorsulfuron were identified. Chlorsulfuron resistance was determined by a Marchantia polymorpha plant that was alive two weeks following exposure to a lethal dose of Chlorsulfuron (0.1 ppm dose, i.e. a dose sufficient to kill 100% of wild-type plants).

For the compound `COc1nc(C)nc(NC(=O)NS(=O)(=O)c2ccccc2Cl)n1` [Chlorsulfuron], the wild-type plants killed is 100%.

(Values after US20210335449A1, “Method or System for Identification of a Causative Mutation Causing a Phenotype of Interest in a Test Sample” (Oxford University Innovation Limited, priority 2018, published 2021).)
